Data: paper PMC13184981, “Discovery and Development of a Potent LIMK2 Isoform-Specific Degrader” (ACS Chemical Biology, 2026)

Experiments:
EGFP–LIMK2 = target: T1, EGFP–LIMK2 (Homo sapiens, UniProt P53671); experiment: EGFP-LIMK2 depletion live-cell assay (Incucyte); assay type: cell-based
T1 construct: P2A remnant (from EGFP-LIMK2-P2A-mCherry; that residues stay on LIMK2 after self-cleavage is own knowledge) (C); expressed in transfected cells; host or cells: HuCCT1 (lentiviral transduction, doxycycline-inducible pCW57 vector)
T1 sequence (P53671 whole entry): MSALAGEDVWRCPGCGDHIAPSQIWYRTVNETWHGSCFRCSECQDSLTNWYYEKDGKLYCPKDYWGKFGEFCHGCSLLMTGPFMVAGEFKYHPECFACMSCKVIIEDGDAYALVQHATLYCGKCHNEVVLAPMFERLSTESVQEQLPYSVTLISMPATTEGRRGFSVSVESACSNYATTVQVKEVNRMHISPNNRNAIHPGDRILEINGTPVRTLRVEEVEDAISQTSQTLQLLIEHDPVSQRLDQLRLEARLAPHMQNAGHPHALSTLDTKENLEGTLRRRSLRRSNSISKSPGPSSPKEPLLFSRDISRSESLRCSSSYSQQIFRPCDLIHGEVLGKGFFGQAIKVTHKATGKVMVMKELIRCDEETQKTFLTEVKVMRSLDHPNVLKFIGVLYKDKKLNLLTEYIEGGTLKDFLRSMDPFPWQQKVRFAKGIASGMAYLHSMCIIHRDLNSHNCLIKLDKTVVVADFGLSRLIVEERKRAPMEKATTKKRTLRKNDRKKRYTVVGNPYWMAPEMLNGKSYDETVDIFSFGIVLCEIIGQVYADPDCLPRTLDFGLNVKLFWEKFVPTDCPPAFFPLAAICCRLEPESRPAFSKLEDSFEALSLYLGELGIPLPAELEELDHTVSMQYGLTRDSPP

LIMK1 = target: T2, LIMK1 (Homo sapiens, UniProt P53667); experiment: Western blot of endogenous LIMK1 in HuCCT1 cells; assay type: cell-based; details: HuCCT1, 6 h treatment
T2 construct: host or cells: HEK293T
T2 sequence (P53667 whole entry): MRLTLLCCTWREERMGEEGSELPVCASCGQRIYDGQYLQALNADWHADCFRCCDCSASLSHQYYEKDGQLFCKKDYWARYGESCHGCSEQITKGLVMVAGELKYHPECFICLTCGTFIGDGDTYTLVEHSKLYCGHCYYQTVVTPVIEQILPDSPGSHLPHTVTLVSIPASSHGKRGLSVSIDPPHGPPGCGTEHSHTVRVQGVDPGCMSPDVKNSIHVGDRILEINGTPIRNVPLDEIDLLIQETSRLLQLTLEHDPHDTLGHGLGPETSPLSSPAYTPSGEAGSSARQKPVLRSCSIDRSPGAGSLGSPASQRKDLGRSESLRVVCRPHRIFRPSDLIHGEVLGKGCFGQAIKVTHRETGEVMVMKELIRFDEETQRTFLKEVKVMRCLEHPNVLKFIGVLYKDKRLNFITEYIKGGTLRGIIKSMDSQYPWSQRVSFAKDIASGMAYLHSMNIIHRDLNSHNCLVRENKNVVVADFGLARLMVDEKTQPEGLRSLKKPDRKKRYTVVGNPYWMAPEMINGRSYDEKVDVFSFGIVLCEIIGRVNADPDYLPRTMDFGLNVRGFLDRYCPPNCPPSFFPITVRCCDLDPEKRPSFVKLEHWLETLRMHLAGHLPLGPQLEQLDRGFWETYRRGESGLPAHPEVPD
Experimental: HuCCT1 cell line was cultured in Roswell Park Memorial Institute (RPMI) 1640 medium supplemented with GlutaMAX, 10% fetal bovine serum (FBS), and 1% penicillin/streptomycin. The cell line was maintained in an incubator with 5% CO2 at 37 °C. For the treatment, 3 × 10^5 cells were plated and treated with the compounds and DMSO as the control for 6 h. The cells were then lysed using RIPA buffer (50 mM Tris-HCl pH 7.4, 150 mM NaCl, 1% Triton X-100, 1% NaDOC, 0.1% SDS, 1 mM EDTA), freshly supplemented with protease and phosphatase inhibitor cocktails (Sigma-Aldrich, Darmstadt, Germany). After 1 h incubation on ice, the lysates were centrifuged for 30 min at […], and the protein-containing supernatant was collected. The protein concentrations were determined using Protein Assay Dye Reagent Concentrate (Bradford, Bio-Rad, Hercules, CA, USA) and Pre-Diluted Protein Assay Standards: Bovine Serum Albumin (BSA) Set (Thermo Fisher Scientific, Darmstadt, Germany). Then, equal amounts of protein was mixed with Roti-Load 1 dye (Carl Roth, Karlsruhe, Germany) and 4x Laemmli Buffer (Bio-Rad, Hercules, CA, USA), denatured at 95 °C, and run on NuPAGE 4–12% bis-Tris gels (Thermo Fisher Scientific). Proteins were blotted on methanol-activated PVDF Transfer Membranes (Thermo Fisher Scientific) using the wet transfer method with the transfer buffer (Thermo Fisher Scientific) and 20% methanol. […]

[1] = test system: CFL1, CFL2 and DSTN phosphorylation; experiment: Phospho-proteomics; assay type: cell-based, human; details: HuCCT1, 500 nM, 6 h
Experimental: Cells were lysed in SDS-lysis buffer (50 mM Tris, pH 8.5, 2% SDS, 10 mM TCEP, 40 mM chloroacetamide, protease inhibitor cocktail, phosphatase inhibitor) and boiled at 95 °C for 10 min. Proteins were precipitated using methanol-chloroform and resuspended in 8 M urea, 50 mM Tris, pH 8.5. Proteins were digested with 1:50 w/w LysC (Wako Chemicals, cleaves at the carboxylic side of lysine residue) and 1:100 w/w trypsin (Promega, Sequencing-grade) overnight at 37 °C after dilution to a final urea concentration of 1 M using 50 mM Tris pH 8.5. Digested peptides were then acidified (pH 2–3) using trifluoroacetic acid (TFA) and purified using C18 SepPak columns (Waters). […]
Tryptic peptides were analyzed on an Orbitrap Lumos coupled to an easy nLC 1200 (ThermoFisher Scientific) using a 35 cm long, 75 μm ID fused-silica column packed in-house with 1.9 μm C18 particles (Reprosil pur, Dr. Maisch), and kept at 50 °C using an integrated column oven (Sonation). […] MS2 scans for quantification were performed on the 10 most intense MS ions with an isolation window of 0.7 Th. Ions were fragmented using HCD with a normalized collision energy of 35% and analyzed in the Orbitrap with a resolution of 50,000 at m/z 200, scan range of 100–500 m/z, AGC target value of 1 × 10^5, and a maximum injection time of 86 ms. […]
MS raw data were analyzed using MaxQuant (2.4.2.0). […]

In the case of `Cc1c(OCc2cn(CCCCC(=O)Nc3ncc(-c4cc(C(F)F)nn4-c4c(Cl)cccc4Cl)s3)nn2)cccc1N1CCC(=O)NC1=O` [22b], the Dmax (EGFP–LIMK2; 0.01 nM PROTAC) is reported as 4.5%, the Dmax (EGFP–LIMK2; 10000 nM PROTAC) is reported as 96.1% and the “LIMK1 degradation (Western blot)” value (LIMK1) is reported as “LIMK1 protein levels remained unaffected”. For the same molecule, the “phosphorylation of CFL1, CFL2 and DSTN” value [1] was “no significant change in phosphorylation”.
